Measurements reported in US20080113900A1, “Pharmaceutical compositions and therapeutic applications for the use of a synthetic vitamin B12 derivative, glutathionylcobalamin” (priority 2006, published 2008).
Values joined by “and” are separate entries in the source; they are usually repeats but may differ in a detail not shown here. Equal values may be shown once. Where a name gives a salt, the structure may show the parent alone.

Legend:
SK-HEP-1 cells [1] = assay: Protection of endothelial cells from homocysteine-induced cell death (MTS assay); type: cell-based, human
Procedure: The effect of a constant concentration of NACCbl and GSCbl to protect cells against variable concentrations of homocysteine was assessed. […] Cell viability was determined by MTS® assay. Data shown in FIG. 4 are representative of means ±SE of 6 independent samples. FIG. 4 illustrates that NACCbl (▪) and GSCbl (▴) protect endothelial cells from the effect of homocysteine. […] Cell viability was determined by MTS® assay. […] There was a decrease in protection as homocysteine concentration increased, but there was still ˜60% survival at 50 μM homocysteine.
The data was normalized (log 2 and log 10) as shown in FIGS. 16 and 17 and Tables 16 and 17, respectively, below.

Hsp32 = Hsp32 gene expression (RT-PCR, densitometry); type: cell-based, human
Procedure: (§1) Cells were plated into 6-, 12-, or 24-well cell culture clusters, at 2×10^3, 2×10^5, or 1×10^5 cells per well and incubated until 90% confluent. Treatments were applied as above.
(§2) Following incubation, cells were subjected to mRNA extraction followed by cDNA synthesis for each sample under test. Polymerase chain reaction cDNA templates were prepared for simplex PCR protocol. PCR products were then visualized using a UV Transilluminator and images captured using a Kodak ID gel imaging system. Densitometry and statistical analysis was then performed on each gene expression band image using PSP® v 10.0 running under Windows XP®.
(§3) mRNA extraction was performed using the Quickprep micro mRNA Purification Kit. Following incubation of cells post-treatment, the media was removed from the cells, adherent cells were re-suspended in 0.4 ml extraction buffer and 0.8 ml elution buffer at 65° C. was added.
A reaction mixture was prepared in individual microcentrifuge tubes containing 2 cDNA synthesis beads, 32 μl of the mRNA solution and 1 μl of pd(N)6. This mixture was incubated at 37° C. in a water bath for 60 minutes. After incubation, 27 μl of RNase-free DEPC treated water was added to each tube to make a total volume 60 μl. cDNA samples were prepared in duplicate. Sample 1 was used immediately in RT-PCR protocol. Sample 2 was prepared for qPCR protocol by the addition of 150 μl of 95% ice-cold ethanol and stored at −20° C.
Microcentrifuge tubes from puReTaq™Ready-To-Go™ PCR Beads containing one PCR bead were labeled for each sample required. Added to the PCR bead were 17 μl of RNase-free DEPC treated water, 1 μl sense primer, 1 μl anti-sense primer and 5 μl of the cDNA solution. RT-PCR conditions were as follows: Hsp70 and β-actin, pre-treatment step, 94° C. for 1 minute, followed by denaturing at 92° C. for 1 minute, annealing at 60° C. for 1 minute and extension at 72° C. for 1 minute. Total cycles, 30, post-treatment was then carried out at 72° C. for 10 minutes. For Hsp32, pre-treatment step, 95° C. for 2 minutes, followed by denaturing at 94° C. for 30 seconds, annealing at 58° C. for 1 minute and extension at 72° C. for 1 minute. Total cycles 45, post treatment was then carried out at 72° C. for 10 minutes. Following RT-PCR, samples were stored at −20° C.
Gels were visualised on a UV Transilluminator. Photographs were stored using a Kodak Digital camera system fitted with a UV filter set connected to a PC. Images were then transferred to the Kodak ID gel imaging system. Densitometry was performed on each gene expression band using PSP™ v10 running under Windows XP®.
Experiments were conducted using Hsp32 and Hsp 70 gene expression as the basis for study. […] The densitometric data are presented as means ±SEM of n=3 separate experiments. *p<0.05 or **p<0.01, treatment vs. control.

Hsp70 = Hsp70 gene expression (RT-PCR, densitometry); conditions: SK-HEP-1, 30 μM, 2 hr
Procedure: as §1, §2, §3
A reaction mixture was prepared in individual microcentrifuge tubes containing 2 cDNA synthesis beads, 32 μl of the mRNA solution and 1 μl of pd(N)6. This mixture was incubated at 37° C. in a water bath for 60 minutes. After incubation, 27 μl of RNase-free DEPC treated water was added to each tube to make a total volume 60 μl. cDNA samples were prepared in duplicate. Sample 1 was used immediately in RT-PCR protocol.
Microcentrifuge tubes from puReTaq™Ready-To-Go™ PCR Beads containing one PCR bead were labeled for each sample required. Added to the PCR bead were 17 μl of RNase-free DEPC treated water, 1 μl sense primer, 1 μl anti-sense primer and 5 μl of the cDNA solution. RT-PCR conditions were as follows: Hsp70 and β-actin, pre-treatment step, 94° C. for 1 minute, followed by denaturing at 92° C. for 1 minute, annealing at 60° C. for 1 minute and extension at 72° C. for 1 minute. Total cycles, 30, post-treatment was then carried out at 72° C. for 10 minutes. For Hsp32, pre-treatment step, 95° C. for 2 minutes, followed by denaturing at 94° C. for 30 seconds, annealing at 58° C. for 1 minute and extension at 72° C. for 1 minute. […]

in vitro = conditions: human, SK-HEP-1 cells
SK-HEP-1 cells [2] = assay: NACCbl protection from homocysteine with inhibition of Hsp32/Hsp70 by Sn(IX) protoporphyrin, quercitin or siRNA (MTS assay); conditions: listed as Hcy
SK-HEP-1 cells [3] = assay: Effect of homocysteine and H2O2 on endothelial cell viability (MTS assay); conditions: for Normalized Data Log 2, Mean / Normalized Data Log 10, Mean: Hcy alone, n = 6; for Cell viability (MTS assay): SK-HEP-1, 2 hours, n = 6 replicates
SK-HEP-1 cells [4] = assay: Protection from homocysteine-induced apoptosis, Caspase-3 activity (apoptosis assay); type: cell-based, human; conditions: 30 μM two hours, then 30 μM homocysteine two hours
Procedure: Caspase 3 is activated when cells undergo apoptosis. Caspase-3 assay is a standard for apoptosis assay. Homocysteine is a known inducer of apoptosis. Cells were cultured in 96-well plates for 24 hours and then treated with reagents under test conditions. Cytotoxic agents, H2O2 and etoposide were added to negative control wells. The assay was performed according to the manufacturer's protocol, as follows: Cells were re-suspended in 100 μl of clear media and 50 μl of Caspase-3 substrate solution was immediately added to each test well. […] Cell viability was determined by MTS® assay. […] Cell viability was determined by MTS® assay.

## NC(CCS)C(=O)O (racemic) [Homocysteine, DL-Homocysteine]
SK-HEP-1 cells [1]; SK-HEP-1, NACCbl 30 μM, NAC 75 μM, Hcy conc. 200.000, n = 6, label Hcy = Hcy alone
  Absorbance at 490 nm, Mean: 0.360
SK-HEP-1 cells [1]; [Hcy] 30 μM, [NAC] = 45 μM, [NACCbl] = 12.5 μM, [Folate] = 25 μM where named in the label, label Hcy/HCy = Hcy alone
  Mean (FIG. 14, protection of SK-HEP-1 cells from Hcy): 0.616
SK-HEP-1 cells [1]; as E80, Hcy conc. 1.780
  Absorbance at 490 nm, Mean: 1.863
SK-HEP-1 cells [1]; as E80, Hcy conc. 3.125
  Absorbance at 490 nm, Mean: 1.578
SK-HEP-1 cells [1]; as E80, Hcy conc. 6.250
  Absorbance at 490 nm, Mean: 1.230
SK-HEP-1 cells [1]; as E80, Hcy conc. 12.500
  Absorbance at 490 nm, Mean: 1.177
SK-HEP-1 cells [1]; as E80, Hcy conc. 25.000
  Absorbance at 490 nm, Mean: 0.847
SK-HEP-1 cells [1]; as E80, Hcy conc. 50.000
  Absorbance at 490 nm, Mean: 0.739
SK-HEP-1 cells [1]; as E80, Hcy conc. 100.000
  Absorbance at 490 nm, Mean: 0.517
Hsp32; SK-HEP-1, 30 μM, 2 hr
  Hsp32 gene expression: increase in expression
Hsp32; SK-HEP-1, Sn (IX) protoporphyrin 25 μM, Quercitin 15 μM
  Hsp32 gene expression: induced
Hsp70
  Hsp70 gene expression: increase in expression
In vitro
  viability at 2 h, 0.781 µM: 99.8%
  viability at 2 h, 3.125 µM: 96%
SK-HEP-1 cells [2]; SK-HEP-1, NACCbl 30 μM two hours with or without Sn(IX)PP/quercetin, then Hcy conc. 200 two hours, label Hcy = Hcy alone
  Cell viability by MTS assay (FIG. 11), replicates 1-6: 0.33 and 0.312 and 0.39 and 0.302 and 0.421 and 0.406
SK-HEP-1 cells [2]; as E45, Hcy conc. 1.78
  Cell viability by MTS assay (FIG. 11), replicates 1-6: 1.746 and 1.932 and 1.95 and 1.83 and 1.837 and 1.884
SK-HEP-1 cells [2]; as E45, Hcy conc. 3.125
  Cell viability by MTS assay (FIG. 11), replicates 1-6: 1.543 and 1.487 and 1.656 and 1.63 and 1.593 and 1.558
SK-HEP-1 cells [2]; as E45, Hcy conc. 6.25
  Cell viability by MTS assay (FIG. 11), replicates 1-6: 1.304 and 1.406 and 1.227 and 1.176 and 1.15 and 1.119
SK-HEP-1 cells [2]; as E45, Hcy conc. 12.5
  Cell viability by MTS assay (FIG. 11), replicates 1-6: 1.104 and 1.001 and 1.042 and 1.114 and 1.324 and 1.479
SK-HEP-1 cells [2]; as E45, Hcy conc. 25
  Cell viability by MTS assay (FIG. 11), replicates 1-6: 0.692 and 0.956 and 0.876 and 0.882 and 0.937 and 0.74
SK-HEP-1 cells [2]; as E45, Hcy conc. 50
  Cell viability by MTS assay (FIG. 11), replicates 1-6: 0.678 and 0.881 and 0.602 and 0.77 and 0.724 and 0.779
SK-HEP-1 cells [2]; as E45, Hcy conc. 100
  Cell viability by MTS assay (FIG. 11), replicates 1-6: 0.654 and 0.449 and 0.466 and 0.501 and 0.522 and 0.51
SK-HEP-1 cells [3]; conc. 1.780
  Normalized Data Log 2, Mean: 59.351
  Normalized Data Log 10, Mean: 89.537
SK-HEP-1 cells [3]; conc. 3.125
  Normalized Data Log 2, Mean: 48.077
  Normalized Data Log 10, Mean: 73.700
SK-HEP-1 cells [3]; conc. 6.250
  Normalized Data Log 2, Mean: 34.347
  Normalized Data Log 10, Mean: 54.413
SK-HEP-1 cells [3]; conc. 12.500
  Normalized Data Log 2, Mean: 32.253
  Normalized Data Log 10, Mean: 51.471
SK-HEP-1 cells [3]; conc. 25.000
  Normalized Data Log 2, Mean: 19.208
  Normalized Data Log 10, Mean: 33.145
SK-HEP-1 cells [3]; conc. 50.000
  Normalized Data Log 2, Mean: 14.935
  Normalized Data Log 10, Mean: 27.142
SK-HEP-1 cells [3]; conc. 100.000
  Normalized Data Log 2, Mean: 6.164
  Normalized Data Log 10, Mean: 14.820
SK-HEP-1 cells [3]; conc. 200.000
  Normalized Data Log 2, Mean: −0.033
  Normalized Data Log 10, Mean: 6.115
SK-HEP-1 cells [3]; SK-HEP-1, 2 hours
  Concentration achieving greater than 90% death (<10% survival): 25 µM
SK-HEP-1 cells [3]; SK-HEP-1, 2 hours, p<0.001
  Concentration that killed cells: ≥ 5 µM
SK-HEP-1 cells [3]; 0.781 μM
  Cell viability (MTS assay): 98.11 and 102.5676 and 102.4576 and 98.72 and 98.39
SK-HEP-1 cells [3]; 1.562 μM
  Cell viability (MTS assay): 100.5319 and 102.4026 and 85.18 and 81.33 and 81.6 and 98.83
SK-HEP-1 cells [3]; 3.125 μM
  Cell viability (MTS assay): 91.62 and 82.82 and 78.3 and 80.94 and 91.78
SK-HEP-1 cells [3]; 6.25 μM
  Cell viability (MTS assay): 62.02 and 28.4 and 38.2485 and 48.6474 and 67.63 and 55.0298
SK-HEP-1 cells [3]; 25 μM
  Cell viability (MTS assay): 1.495 and 0.5044 and 0.1192
SK-HEP-1 cells [3]; 50 μM
  Cell viability (MTS assay): 0.2843 (2×) and 0.9445 and 1.44 and 3.255

## CN1c2c(nc(N)[nH]c2=O)NC[C@@H]1CNc1ccc(C(=O)N[C@@H](CCC(=O)O)C(=O)O)cc1 [folate, 5-Methyltetrahydrofolic acid disodium salt]
Hsp32; SK-HEP-1, 30 μM, 2 hr
  Hsp32 gene expression: increase in expression
Hsp70
  Hsp70 gene expression: increase in expression
SK-HEP-1 cells [4]
  Protection against apoptosis induced by homocysteine: partial protection
